The source of these data is patent publication US12649750B2, “Macrocyclic compounds, compositions, and methods of using thereof” (Sionna Therapeutics Inc., priority 2022, dated 2026).

T1 sequence (P13569 423-646 limits assumed): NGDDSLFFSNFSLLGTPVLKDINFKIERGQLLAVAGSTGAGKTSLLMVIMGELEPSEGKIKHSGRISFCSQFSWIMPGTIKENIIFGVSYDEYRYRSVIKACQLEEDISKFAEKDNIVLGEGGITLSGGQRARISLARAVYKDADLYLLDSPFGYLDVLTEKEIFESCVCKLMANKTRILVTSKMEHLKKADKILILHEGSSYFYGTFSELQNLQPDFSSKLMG

The assay concerns the target T1, NBD1 (Homo sapiens, UniProt P13569).
T1 construct: Purified recombinant NBD1 was produced using previously described methods; made in house
Briefly: Aggregation analysis using differential static light scattering (DSLS), thermal stability of NBD1 (ΔTagg). In kind it is binding. The conditions noted are these: ΔTagg versus DMSO control, NBD1 0.2 mg/ml. As to the method: Example 386. Aggregation Analysis Using Differential Static Light Scattering (DSLS)
Purified recombinant NBD1 was produced using previously described methods (A. Schmidt, J. L. Mendoza, P. J. Thomas (2011) Biochemical and Biophysical Approaches to Probe CFTR Structure (365-376) M. D. Amaral, K. Kunzelmann (eds.), Cystic Fibrosis, Methods in Molecular Biology 741, Springer Science+Business Media). The effect of test compounds on thermal stability of NBD1 was evaluated by differential static light scattering (DSLS) using the Harbinger Stargazer-384 instrument (Epiphyte Three, Toronto, Canada). Test compounds were dissolved and diluted to desired concentrations in 100% DMSO. The compounds or DMSO controls (100 nL) were stamped into wells of a […] low volume optical plate (Corning Inc., Corning, NY) using the Echo 555 acoustic liquid handler (Labcyte Inc., San Jose, CA).
NBD1 protein was diluted to 0.2 mg/ml in S200 buffer (50 mM Tris-HCl, 150 mM NaCl, 5 mM MgCl2, 2 mM ATP, 2 mM DTT, pH7.6) containing 1% glycerol. 10 uL of protein solution was aliquoted into the 384-well plate harboring the test compounds and 10 uL mineral oil was overlaid onto the protein solution, using the epMotion robotic liquid handler (Eppendorf North America, Hauppauge, NY). After placing into the Stargazer instrument, the plate was heated at 1° C. per minute to 70° C. Images were captured from 25° C. to 70° C. every 0.5° C. At the end of the experiment run, instrument software integrated image files and analyzed data automatically. A […] regression curve was generated for each well, representing the increase in light scattering over time. A temperature of aggregation (Tagg) was calculated based on the inflection point of the curve. To better compare data across experiments the average Tagg for DMSO control wells was calculated and subtracted from values for wells containing compounds to obtain a “ΔTagg” value. These ΔTagg values reflect stabilizing efficacy of the compounds. As set forth in Table 2 below, an ΔTagg value less than or equal to 5° C. is marked “A”; a value above 5° C. and less than or equal to 10° C. is marked “B”; a value greater than 10° C. and less than or equal to 25° C. is marked “C”.
Consider `COCC(Cc1cccc([C@@]2(C)CCCC(C)(C)CS(=O)(=O)CCc3c(c(F)c(F)c4[nH]ccc34)[S+]([O-])c3ccc(F)c(c3)-c3nc2nn3C)c1)C(=O)O` (single isomer, unassigned) [Compound 372], for which the “DSLS 3D (100 μM ΔT)” value was “B (a value above 5 °C and less than or equal to 10 °C is marked “B”)”.

Regarding `COCC(Cc1cccc([C@@]2(C)CCCC(C)(C)CS(=O)(=O)CCc3c(c(F)c(F)c4[nH]ccc34)[S+]([O-])c3ccnc(c3)-c3nc2nn3C)c1)C(=O)O` (single isomer, unassigned) [Compound 374], the “DSLS 3D (100 μM ΔT)” value is “B (a value above 5 °C and less than or equal to 10 °C is marked “B”)”.

`COCC(Cc1cccc([C@@]2(C)CCCC(C)(C)CS(=O)(=O)CCc3c(c(F)c(F)c4[nH]ccc34)[S+]([O-])c3ccnc(c3)-c3nc2nn3C)c1)C(=O)O` (single isomer, unassigned) [Compound 375]: the “DSLS 3D (100 μM ΔT)” value is “B (a value above 5 °C and less than or equal to 10 °C is marked “B”)”.

On to `C[C@H](Cc1cccc([C@@]2(C)CCCC(C)(C)CS(=O)(=O)CCc3c(c(F)cc4[nH]ccc34)[S+]([O-])c3cc(c(F)cc3N)-c3nc2nn3C)c1)C(=O)O` (single isomer, unassigned) [Compound 379A], for which the “DSLS 3D (100 μM ΔT)” value is “A (an ΔTagg value less than or equal to 5 °C is marked “A”)”.

Turning to `C[C@H](Cc1cccc([C@@]2(C)CCCC(C)(C)CS(=O)(=O)CCc3c(c(F)cc4[nH]ccc34)[S+]([O-])c3cc(c(F)cc3N)-c3nc2nn3C)c1)C(=O)O` (single isomer, unassigned) [Compound 379B], the “DSLS 3D (100 μM ΔT)” value is “A (an ΔTagg value less than or equal to 5 °C is marked “A”)”.

In the case of `C[C@H](Cc1cccc(C2NCCOCCS(=O)(=O)Cc3c(c(F)c(F)c4[nH]ccc34)Oc3ccc(F)c(c3)-c3nc2nn3C)c1)C(=O)O` (single isomer, unassigned) [Compound 381A], the “DSLS 3D (100 μM ΔT)” value is “A (an ΔTagg value less than or equal to 5 °C is marked “A”)”.

For the molecule `C[C@H](Cc1cccc(C2NCCOCCS(=O)(=O)Cc3c(c(F)c(F)c4[nH]ccc34)Oc3ccc(F)c(c3)-c3nc2nn3C)c1)C(=O)O` (single isomer, unassigned) [Compound 381B], the “DSLS 3D (100 μM ΔT)” value was “A (an ΔTagg value less than or equal to 5 °C is marked “A”)”.

As for `C[C@H](Cc1cccc([C@@]2(C)CCCC(C)(C)CS(=O)(=O)CC(N)c3c(c(F)c(F)c4[nH]ccc34)Oc3ccc(F)c(c3)-c3nc2nn3C)c1)C(N)=O` (single isomer, unassigned) [Compound 385A], the “DSLS 3D (100 μM ΔT)” value is “B (a value above 5 °C and less than or equal to 10 °C is marked “B”)”.

Regarding `C[C@H](Cc1cccc([C@@]2(C)CCCC(C)(C)CS(=O)(=O)CC(N)c3c(c(F)c(F)c4[nH]ccc34)Oc3ccc(F)c(c3)-c3nc2nn3C)c1)C(N)=O` (single isomer, unassigned) [Compound 385B], the “DSLS 3D (100 μM ΔT)” value was “A (an ΔTagg value less than or equal to 5 °C is marked “A”)”.

In the case of `O=C(O)CCc1cccc(C2CCCCCCS(=O)(=O)CCc3c(c(F)cc4[nH]ccc34)Oc3ccc(F)c(c3)-c3ncc2[nH]3)c1` (centres unmarked) [Compound 35, 3-[3-(23,29-Difluoro-13,13-dioxo-25-oxa-13λ6-thia-3,20,31-triazapentacyclo[24.3.1.12,5.016,24.017,21]hentriaconta-1(30),2,4,16,18,21,23,26,28-nonaen-6-yl)phenyl]propanoic Acid], the “DSLS 3D (100 μM ΔT)” value was “C (a value greater than 10 °C and less than or equal to 25 °C is marked “C”)”.

Turning to `O=C(O)CCc1cccc(C2CCCCCS(=O)(=O)CCc3c(c(F)cc4[nH]ccc34)Oc3ccc(F)c(c3)-c3ncc2[nH]3)c1` (centres unmarked) [Compound 36, 3-[3-(22,28-Difluoro-12,12-dioxo-24-oxa-12λ6-thia-3,19,30-triazapentacyclo[23.3.1.12,5.015,23.016,20]triaconta-1(29),2,4,15,17,20,22,25,27-nonaen-6-yl)phenyl]propanoic Acid], the “DSLS 3D (100 μM ΔT)” value was “C (a value greater than 10 °C and less than or equal to 25 °C is marked “C”)”.

For `CN1CCS(=O)(=O)CCC(C)(c2cccc(CCC(=O)O)c2)c2cnc([nH]2)-c2cc(ccc2F)Oc2c(F)cc3[nH]ccc3c2CC1=O` (centres unmarked) [Compound 38, 3-[3-(22,28-Difluoro-6,12-dimethyl-9,9,13-trioxo-24-oxa-9λ6-thia-3,12,19,30-tetrazapentacyclo[23.3.1.12,5.015,23.016,20]triaconta-1(29),2,4,15,17,20,22,25,27-nonaen-6-yl)phenyl]propanoic Acid], the “DSLS 3D (100 μM ΔT)” value is “C (a value greater than 10 °C and less than or equal to 25 °C is marked “C”)”.

In the case of `CN1CCS(=O)(=O)CCC(C)(c2cccc(CCC(=O)O)c2)c2cnc([nH]2)-c2cc(ccc2F)Oc2c(F)cc3[nH]ccc3c2CCC1=O` (centres unmarked) [Compound 39, 3-[3-(23,29-Difluoro-6,12-dimethyl-9,9,13-trioxo-25-oxa-9λ6-thia-3,12,20,31-tetrazapentacyclo[24.3.1.12,5.016,24.017,21]hentriaconta-1(30),2,4,16,18,21,23,26,28-nonaen-6-yl)phenyl]propanoic Acid], the “DSLS 3D (100 μM ΔT)” value is “B (a value above 5 °C and less than or equal to 10 °C is marked “B”)”.

`CC1(C)CCCC(C)(c2cccc(CCC(=O)O)c2)c2csc(n2)-c2cc(ccc2F)Oc2c(F)cc3[nH]ccc3c2CCS(=O)(=O)C1` (centres unmarked) [Compound 49, 3-[3-(22,28-Difluoro-6,10,10-trimethyl-12,12-dioxo-24-oxa-3,12lambda6-dithia-19,30-diazapentacyclo[23.3.1.12,5.015,23.016,20]triaconta-1(29),2(30),4,15,17,20,22,25,27-nonaen-6-yl)phenyl]propanoic acid]: the “DSLS 3D (100 μM ΔT)” value was “C (a value greater than 10 °C and less than or equal to 25 °C is marked “C”)”.

Consider `CCOC(=O)[C@@H](C)Cc1cccc(C2CCCC(C)(C)CS(=O)(=O)CCc3c(c(F)cc4[nH]ccc34)C(=O)c3cccc(c3)-c3ccn2n3)c1` (stereo partly drawn) [Compound 161, Ethyl (2S)-3-[3-(22-fluoro-10,10-dimethyl-12,12,24-trioxo-12λ6-thia-5,19,30-triazapentacyclo[23.3.1.12,5.015,23.016,20]triaconta-1(29),2(30),3,15,17,20,22,25,27-nonaen-6-yl)phenyl]-2-methyl-propanoate], for which the “DSLS 3D (100 μM ΔT)” value was “A (an ΔTagg value less than or equal to 5 °C is marked “A”)”.

As for `C[C@H](Cc1cccc([C@@]2(C)CCCC(C)(C)CS(=O)(=O)CCc3c(c(F)c(F)c4[nH]ccc34)S(=O)(=O)c3ccnc(c3)-c3nc2nn3C)c1)C(=O)O` [Compound 301, (2R)-3-[3-[(6R)-21,22-difluoro-3,6,10,10-tetramethyl-12,12,24,24-tetraoxo-12λ6,24λ6-dithia-3,4,19,28,30-pentazapentacyclo[23.3.1.12,5.015,23.016,20]triaconta-1(29),2(30),4,15,17,20,22,25,27-nonaen-6-yl]phenyl]-2-methyl-propanoic Acid], the “DSLS 3D (100 μM ΔT)” value was “A (an ΔTagg value less than or equal to 5 °C is marked “A”)”.

As to `Cn1nc2nc1-c1cc(ccc1F)Sc1c(F)cc3[nH]ccc3c1CCS(=O)(=O)CC(C)(C)CCC[C@]2(C)c1cccc([C@H](O)CO)c1` [Compound 302A, (1S)-1-[3-[(6R)-22,28-Difluoro-3,6,10,10-tetramethyl-12,12-dioxo-12λ6,24-dithia-3,4,19,30-tetrazapentacyclo[23.3.1.12,5.015,23.016,20]triaconta-1(29),2(30),4,15,17,20,22,25,27-nonaen-6-yl]phenyl]ethane-1,2-diol], the “DSLS 3D (100 μM ΔT)” value is “B (a value above 5 °C and less than or equal to 10 °C is marked “B”)”.
